Patent US20240124520A1, “N-ACYLATED HISTIDINE DIPEPTIDES AS ANTICANCER AGENTS” (THE BOARD OF TRUSTEES OF THE LELAND STANFORD JUNIOR …, priority 2019, published 2024)
Non-standard residues stand in square brackets, D forms with d. Residues, ends and D or L forms follow the SMILES beside them. *: point of attachment. Palmitoyl = CCCCCCCCCCCCCCCC(=O)*

Tests used:
Type in all cases: cell-based
[1] = test system: OVCAR-3 human ovarian cancer cells; assay: Cell Titer Blue in vitro cell viability assay, OVCAR-3; conditions: 72 h, OVCAR-3 (RPMI), 3 days at 37° C.
Method: (§1) FIG. 14: Dose Response curve for MBC0179 with OVCAR-3 cells. Compound MBC0179 was incubated with OVCAR-3 human ovarian cancer cells at the indicated concentrations for 3 days at 37° C. prior to Cell Titer Blue fluorescence-based cell viability assay. Normalized cell viability data, expressed as a percentage, are averaged from three biological replicates and standard error represented by error bars for each averaged data point (empty squares). The compound concentrations are represented on log scale on the x-axis in μM units. Data were analyzed using free software called DrFit, as described in Nature Scientific Reports, Article number: 14701, (2015). […]
(§2) The Cell Titer Blue reagent (available from Promega, Inc.) is a buffered solution containing resazurin, a compound that is converted to resorufin, a detectable fluorescent product, by metabolically active cells. The fluorescence intensity of resorufin product therefore serves as a proportional measure of the number of viable cells, permitting changes in cell viability within cancer or other cell lines to be monitored in response to the addition of cytotoxic or cytostatic agents. […] Metastases to the lungs may be conveniently quantified by a well-established clonogenic assay. […]

[2] = test system: 4T1 mouse triple-negative breast cancer cells; assay: Cell Titer Blue in vitro cell viability assay, 4T1; conditions: 72 h, 4T1 (RPMI), 3 days at 37° C.
Method: as §1, with “16:” for “14:”, “4T1” for “OVCAR-3”, “4T1 mouse triple-negative breast” for “OVCAR-3 human ovarian”
as §2

[3] = test system: SK-N-SH human neuroblastoma cells; assay: Cell Titer Blue in vitro cell viability assay, SK-N-SH; conditions: 72 h, SK-N-SH (DMEM), 3 days at 37° C.
Method: as §1, with “15:” for “14:”, “SK—N—SH” for “OVCAR-3”, “neuroblastoma” for “ovarian cancer”
as §2

CCCCCCCCCCCCCCCC(=O)N[C@H](Cc1c[nH]cn1)C(=O)N[C@@H](C(=O)OCC)C(C)C [Compound 5, N-[N-(1-oxohexadecyl)-D-histidyl]-D-valine ethyl ester] (Palmitoyl-[dH]-[dV]-OEt)
IC50 [1]: 9.22 µM | IC50 [2]: 25.5 µM | IC50 [3]: 35 µM
